Measurements published in patent publication US8703120B2, “Use of oncolytic herpes viruses for killing cancer stem cells” (The General Hospital Corporation, priority 2008, dated 2014).

Tests used:
Format in all cases: cell-based
GBM4 glioma stem cells = assay: MTS cell viability / cell killing assay with Chou-Talalay analysis; settings: Homo sapiens, 96 h, MTS 4 days later
Procedure: (§1) FIG. 10A depicts TMZ synergy with G47delta in MGMT-negative glioma stem cells (GBM4 and GBM8). GBM4 or GBM8 glioma stem cells were seeded to 96-well plates at 5000 cells per well. […] TMZ was applied first followed by G47Δ 12 hours later. MTS assay was performed to measure cell viability 4 days later.

GBM8 glioma stem cells = assay: as above; settings: Homo sapiens, 96 h, MTS 4 days later
Procedure: as §1

BT74 glioma stem cells = assay: MTS cell viability assay with Chou-Talalay analysis; settings: Homo sapiens, 96 h, MTS 4 days later
Procedure: BT74 glioma stem cells were seeded to 96-well plates at 5000 cells per well. […] TMZ was applied first, with or without O6-Benzylguanine (O6-BG:80 μM), followed by G47Δ 12 hours later. MTS assay was performed to measure cell viability 4 days later.
(§2) TMZ was applied first, with or without O6-Benzylguanine (O6-BG:40 or 80 μM), followed by G47Δ 12 hours later. MTS assay was performed to measure cell viability 4 days later.

GBM13 glioma stem cells = assay: as above; settings: Homo sapiens, 96 h, MTS 4 days later
Procedure: as §2

U87 = assay: MTT cell viability assay with Chou-Talalay analysis; settings: Homo sapiens, U-87 MG, 96 h, MTT 4 days later
Procedure: (§3) FIG. 9A depicts that temozolomide (TMZ) synergizes with oncolytic Herpes vector G47Δ in MGMT-negative glioma cell lines U87 and U373. U87 or U373 cells were seeded to 96-well plates at 3000 cells per well. The next day, 1:3 serial dilution series of Temozolomide (TMZ) (EC50 200 μM), and G47Δ (EC50 MOI=0.06) were prepared. TMZ was applied first followed by G47Δ 12 hours later. MTT assay was performed to measure cell viability 4 days later.

U373 = assay: as above; settings: Homo sapiens, U373 MG, 96 h, MTT 4 days later
Procedure: as §3

Cn1nnc2c(C(N)=O)ncn2c1=O [TMZ, temozolomide] showed an EC50 (GBM4 glioma stem cells) of 20 µM, an EC50 (GBM8 glioma stem cells) of 3 µM and an EC50 (BT74 glioma stem cells) of 1500 µM. It also gave an EC50 (GBM13 glioma stem cells) of 1500 µM, an EC50 (U87) of 200 µM and an EC50 (U373) of 200 µM.
